Data reported in patent US20030004194A1, “Method for treating fibrotic diseases or other indications VI” (Alteon, Inc., priority 2001, published 2003).
Where a name gives a salt, the structure may show the parent alone.

Columns and labels:
[1] = Dog model for diabetes, ventricular elasticity; format: in vivo
Excerpt: (§1) Cardiovascular risk correlates more closely with the systolic and the pulse pressure than with the diastolic pressure. In diabetic patients, the cardiovascular risk profile of diabetic patients is strongly correlated to duration of diabetes, glycemic control and blood pressure. Structural matrix proteins contribute to the function of vessels and the heart, and changes in the physical behavior of cardiovascular walls are believed to be important determinants of circulatory function. In elderly individuals, the loss of compliance in the aorta leads to isolated systolic hypertension, which in turn expands the arterial wall and thereby diminishes the dynamic range of elasticity. Loss of compliance also results in the development of left ventricular hypertrophy.

[2] = tested on: Type IV collagen; experiment: In situ hybridization studies, Type IV collagen expression; format: in vivo
Excerpt: as §1

[3] = In vivo studies of vascular stiffening; settings: in vivo studies in rodents, canines and in primates
Excerpt: as §1

[4] = tested on: collagen in cardiovascular tissues; experiment: Mass of collagen in cardiovascular tissues after treatment; format: in vivo
Excerpt: as §1

[5] = tested on: TGFbeta; experiment: In situ hybridization studies, TGFbeta expression; format: in vivo
Excerpt: as §1

[6] = Phase IIa clinical trial; format: in vivo, human
Excerpt: When the heart pumps blood into the vascular system, the ability of the arteries to expand helps to push blood through the body. When arteries become stiff, as they do in the natural process of aging, the ability of the arteries to expand is diminished and also has consequences for the heart. The heart has to work harder to pump the blood into the stiff arteries, and eventually hypertrophies (enlarges in size) to accomplish this. A hypertrophied heart is an inefficient pump, and is one of the disorders that leads to congestive heart failure. […] The potential clinical benefit of this is to lessen the effort that the heart must expend to push blood throughout the body. The effect is also believed to contribute to preventing hypertrophy and subsequent inefficiency of the heart, which inefficiency would contribute to congestive heart failure.
Atherosclerosis is a disease that involves deposition of blood lipids in plaque in the arteries throughout the body. In coronary arteries, accumulation of plaque progressively leads to reduced coronary flow, with occlusion of the arteries causing focal death of cardiac tissue (myocardial infarction, heart attack). If the amount of tissue that dies is large enough, death ensures. […] Reducing local deposits of plaque should eventually lessen the risk of myocardial infarction and death due to heart attacks.
Pulse pressure is the difference between systolic and diastolic blood pressure. In a young human, systolic pressure is typically 120 mm Hg and diastolic pressure is 80 mm Hg, resulting in a pulse pressure of 40 mm Hg. With age, in many individuals pulse pressure increases, largely due to the increase in systolic pressure that results from stiff vessel disease. In individuals with pulse pressure greater than 60 mm Hg there is an increased risk of death from cardiovascular morbidities. […] This decrease in pulse pressure was believed to be due primarily to the effect of the agent on lowering the systolic blood pressure.

## Cc1sc[n+](CC(=O)c2ccccc2)c1C [3-[2-phenyl-2-oxoethyl]-4,5-dimethyl-thiazolium salt]
[1]
  end diastolic pressure (indicator of ventricular elasticity): returned to a value at about the mid-point between the disease impaired value and the value for control dogs
  end diastolic volume (indicator of ventricular elasticity): returned to a value at about the mid-point between the disease impaired value and the value for control dogs
[2]
  expression of Type IV collagen: reduces the expression
[3]
  vascular stiffening: substantially ameliorating vascular stiffening
[4]
  mass of collagen in cardiovascular tissues: reduction in the mass of collagen
[5]
  expression of TGFbeta: reduces the expression
[6]; Phase IIa clinical trial
  stiffness of arteries, as measured by the ratio of stroke volume (ml) to pulse pressure (mm Hg): showed an ability to reverse the stiffness of arteries
[6]; Phase IIa trial
  amount of circulating triglycerides (lipids): increased the amount of circulating triglycerides
[6]; Phase IIa trial, elderly patients with pulse pressures greater than 60 mm Hg, statistically significant
  pulse pressure: reduced pulse pressure
